Experimental data reported in patent US20190292494A1, “STABILIZATION OF ENZYMES IN COMPOSITIONS” (BASF SE, priority 2016, published 2019).
Entries after “also recorded” stand apart in the source; their conditions may differ. Where two headings read alike, the source gives them in different places.

Legend:
Assay type in all cases: biochemical
[1] = molecular target: T1, protease according SEQ ID No: 1 (Lederbergia lenta, UniProt P29599, R99E); conditions: for protease activity: 2.3% (w/w) diol, 4.4 μM 4-FPBA, 4.8 mM Suc-AAPF-pNA, 16 nM protease, pH 7.5, activity with 4-FPBA only = 100%
Procedure: (§1) Proteolytic activity of proteases has been measured using succinyl-Ala-Ala-Pro-Phe-p-nitroanilide (Suc-AAPF-pNA, short AAPF) as substrate, wherein pNA is cleaved from the substrate molecule by proteolytic cleavage, resulting in release of yellow color of free pNA which was quantified by measuring OD405.
(§2) If not indicated otherwise, enzymatic activity was measured at 30° C.
50 mM phosphate buffer (pH 7.5), 4.4 μM 4-FPBA, 4.8 mM Suc-AAPF-pNA, and 16 nM protease according SEQ ID No: 1 with 2.3% w/w diol or without diol.
The protease activity was measured in presence of the Suc-AAPF-pNA substrate and the 4-FPBA only, which gives the 100% value in Table A.
The protease activity was also measured in the presence of AAPF-pNA substrate, 4-FPBA and 2.3% diol.

[2] = molecular target: T1, protease according SEQ ID No: 1; conditions: for protease activity: activity without BBA and diol = 100%
Procedure: as §1, §2
50 mM phosphate buffer (pH 7.5), 137 μM BBA, 4.8 mM Suc-AAPF-pNA, and 16 nM protease according SEQ ID No: 1 with 135 mM diol or without diol.
The protease activity was measured in presence of the Suc-AAPF-pNA substrate and in the absence of BBA and diol, which gives the 100% value in Table B.
The protease activity was measured in presence of the Suc-AAPF-pNA substrate and BBA, which gives the stabilization of protease by BBA—see Table C-I.
The protease activity was then measured in presence of the Suc-AAPF-pNA substrate and diol (without BBA), which gives the stabilization of protease by diol—see Table C-II.
The protease activity was then measured in presence of the Suc-AAPF-pNA substrate and BBA and diol, which gives the stabilization of protease by BBA and diol—see Table C-III.

[3] = molecular target: protease according to SEQ ID No: 1 (Lederbergia lenta, UniProt P29599, R99E); experiment: Storage stability of protease at 45° C. with diol alone (proteolytic activity, Suc-AAPF-pNA); conditions: no boron compound; for stabilization of protease by diol alone during storage (in words): storage at 45° C., 20-50% w/w diol
Procedure: as §1
To test the effect of diol alone towards the storage stability of proteases, a protease according to SEQ ID No: 1 was stored at 45° C. with varying concentrations of Propane-1,2-diol and Pentane-1,2-diol as indicated in Table B. 4% active protease according to SEQ ID No: 1 was present before storage for the assessment of its changes in proteolytic activity during storage.
Proteolytic activity was measured in the presence of 4.8 mM Sus-AAPF-pNa. As buffering system 50 mM phosphate buffer was used (pH 7.5). Before storage (time=0), the protease activity measured was set 100%.

[4] = molecular target: T1, protease according SEQ ID No: 1; experiment: Mixtures of diols with 4-FPBA: protease activity (Suc-AAPF-pNA)
Procedure: as §1, §2
50 mM phosphate buffer (pH 7.5), 4.4 μM 4-FPBA, 4.8 mM Suc-AAPF-pNA, and 16 nM protease according SEQ ID No: 1 with one or two diols.
The protease activity was measured in presence of the Suc-AAPF-pNA substrate and 4-FPBA and one or two diols, which gives the stabilization of protease by 4-FPBA and one or two diols—see Table D.
The protease activity in presence of the Suc-AAPF-pNA substrate and 4-FPBA only is set 100%.

protease according to SEQ ID No: 1, sequence (P29599 whole entry R99E): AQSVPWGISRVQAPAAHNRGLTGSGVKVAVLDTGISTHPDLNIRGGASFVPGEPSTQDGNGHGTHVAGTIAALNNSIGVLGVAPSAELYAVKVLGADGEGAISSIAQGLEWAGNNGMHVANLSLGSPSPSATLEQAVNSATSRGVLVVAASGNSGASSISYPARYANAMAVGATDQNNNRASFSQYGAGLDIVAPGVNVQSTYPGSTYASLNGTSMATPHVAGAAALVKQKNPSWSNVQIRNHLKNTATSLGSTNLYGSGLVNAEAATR
T1 sequence (P29599 whole entry R99E): as above

Compound `OCCO` [Ethylen-1,2-glycol, ethane-1,2-diol] has a protease activity [1] of 54%, a protease activity ([2]; 135 mM diol with 137 μM BBA) of 43% and a protease activity ([2]; 135 mM diol, without BBA) of 97%.
With `CC(O)CO` (centres unmarked) [Propane-1,2-diol, propane-1,2-diol] the protease activity [1] was 91%, the “proteolytic activity before and after storage” value ([3]; 20% w/w diol, 1 day at 45° C.) was 82% and the “proteolytic activity before and after storage” value ([3]; 20% w/w diol, 3 days at 45° C.) was 64%. The “proteolytic activity before and after storage” value ([3]; 20% w/w diol, 7 days at 45° C.) was 46%, the “proteolytic activity before and after storage” value ([3]; 20% w/w diol, 14 days at 45° C.) was 30% and the “proteolytic activity before and after storage” value ([3]; 20% w/w diol, cero (before storage, set 100%)) was 100%. For the same compound, the “proteolytic activity before and after storage” value ([3]; 30% w/w diol, 1 day at 45° C.) was 92%, the “proteolytic activity before and after storage” value ([3]; 30% w/w diol, 3 days at 45° C.) was 80% and the “proteolytic activity before and after storage” value ([3]; 30% w/w diol, 7 days at 45° C.) was 62%. The “proteolytic activity before and after storage” value ([3]; 30% w/w diol, 14 days at 45° C.) was 47%, the “proteolytic activity before and after storage” value ([3]; 30% w/w diol, cero (before storage, set 100%)) was 100% and the “proteolytic activity before and after storage” value ([3]; 50% w/w diol, 1 day at 45° C.) was 94%. For the same compound, the “proteolytic activity before and after storage” value ([3]; 50% w/w diol, 3 days at 45° C.) was 92%, the “proteolytic activity before and after storage” value ([3]; 50% w/w diol, 7 days at 45° C.) was 79% and the “proteolytic activity before and after storage” value ([3]; 50% w/w diol, 14 days at 45° C.) was 66%. The “proteolytic activity before and after storage” value ([3]; 50% w/w diol, cero (before storage, set 100%)) was 100%, the “stabilization of protease by diol alone during storage (in words)” value [3] was “stabilize the protease increasingly” and the protease activity ([2]; 135 mM diol with 137 μM BBA) was 40%. The protease activity ([2]; 135 mM diol, without BBA) was 94% and the protease activity ([4]; Propane-1,2-diol 120 mM, Pentane-1,2-diol 0 mM, 4.4 μM 4-FPBA, 4-FPBA only = 100%) was 91%.
With `CCCC(O)CO` (centres unmarked) [Pentane-1,2-diol, pentane-1,2-diol] the “inhibitory effect towards proteolytic activity (in words)” value ([1]; diol added to 4-FPBA, compared to the other diols used) was “strong inhibitory effect”, the “stabilization of protease by diol alone during storage (in words)” value [3] was “does not stabilize the protease, but rather destabilizes the protease” and the “stabilization of protease by diol in the presence of BBA (in words)” value ([2]; 135 mM diol with 137 μM BBA) was “best increasing effect on stabilization of protease; also recorded: synergistic stabilization”. The “inhibitory effect towards proteolytic activity (in words)” value ([2]; diol alone (135 mM, without BBA), of the diols tested) was “best inhibitory effect” and the “stabilization of protease in the presence of 4-FPBA (in words)” value ([4]; of the diols tested, with 4-FPBA) was “stabilizes protease best”.
Work on benzene boronic acid [BBA] yielded a protease activity ([2]; 137 μM BBA, no diol) of 66%.
